Measurements as given in US7052850B2, “Isolated human EDG-4 receptor” (priority 1997, dated 2006).
“Also recorded” adds a separate entry of the source.

Tests used:
HL-60 cells = assay: IL-8 response in HL-60 cells; assay type: cell-based, human; details: 1, 6 or 24 hours, S1P or LPA up to 3 μM, TNF-α 10 ng/ml
[1] = test system: pcDNA3-transfected 293-EBNA cells; assay: SRE luciferase reporter in 293-EBNA cells, empty vector pcDNA3; assay type: cell-based; details: for SRE reporter response: Assay 3, 3 μM
Procedure: The protocol described in Example 11 for Assay 1 was allowed except for the following changes: • 1) 100 mm plates of 293-EBNA ith a confluency of ˜80% were used for transfection, • 2) SRE Cotransfection: 0.5 μg of 2XSREtk-p4Luc-zeo reporter DNA and 3.5 μg pcDNA3, EDG-1, EDG-3 pC3-hE3P2, different from the clone used in Assay 2 of Example 11) or the newly cloned human EDG-4 (pC3-hedg4#36); NF-κB Cotransfection: 2 μg 6XNFκBtk-p4LUc-zeo reporter DNA and 2.0 μg pcDNA3, EDG-1, EDG-3 (pC3-hE3HP2), or EDG-4 (pC3-hedg4#36). Expression plasmid and reporter plasmid DNA samples were combined and diluted in 750 μl of DMEM/F12 (serum free media) and 20 μl Plus Reagent (Lipofectamine Plus Kit, Life Technologies Cat. 109640-13), and incubated at room temperature for 15 min. • 3) 30 μl Lipofectamine Reagent (Lipofectamine Plus Kit) was diluted in 750 μl DMEM/F12. The diluted Lipofectamine was then combined with the DNA/Plus mixture and incubated at room temperature for 15 min. • 4) The 293-EBNA plates were washed once with PBS and 5 ml DMEM/F12 was added to each plate. • 5) DNA/Plus/Lipofectamine mixture was added to each plate of 293-EBNA cells. The plates were left for 3 hr at 37° C. in a 5% CO2 incubator. • 6) The transfection medium was replaced with serum-free DMEM/F12 for cells transfected with 2XSREtk-p4Luc-zeo reporter DNA and with DMEM/F12 plus 10% FBS for cells transfected with 6XNFκBtk-p4Luc-zeo reporter DNA. • Day 2. • 2) Transfected cells were harvested by trypsinization and 50,000 cells per well were plated in 96-well Blackview plates coated with poly D-lysine Becton Dickinson Labware, Cat. 40640). No cells were plated in the outside wells of the 96-well plate. • Day 3. • 1) Media for cells transfected with 6XNF-κBtk-p4Luc-zeo reporter DNA was replaced with DMEM/F12 plus 0.5% FBS. • Day 4. • 1) Media was removed and cells treated with compounds diluted in DMEM/F12 media. The following treatments were used for all transfections:
Transfection was accomplished using the Lipofectamine Plus kit (Life Technologies, Cat. 10964-013), using the manufacturer's recommended conditions. Optimal SRE induction was seen when cells were seeded so as to become 100% confluent at the time of treatment, 72–96 hr after transfection.
293-EBNA cells were grown, lipofected in monolayer cultures, and pretreated as described above for Example 11, assay #1, except that NF-κB and AP-1 reporter-transfected cells were preteated for 6 hr in medium containing 0.5% […], then treated overnight in the same medium with or without 10 μM LPA.

human EDG-3 = human EDG-3 (Homo sapiens, UniProt Q99500); assay: SRE luciferase reporter in 293-EBNA cells, human EDG-3; assay type: cell-based; details: Assay 3; pancreas clone pC3-E3HP2; 3 μM
Chain of human EDG-3 (Q99500 whole entry): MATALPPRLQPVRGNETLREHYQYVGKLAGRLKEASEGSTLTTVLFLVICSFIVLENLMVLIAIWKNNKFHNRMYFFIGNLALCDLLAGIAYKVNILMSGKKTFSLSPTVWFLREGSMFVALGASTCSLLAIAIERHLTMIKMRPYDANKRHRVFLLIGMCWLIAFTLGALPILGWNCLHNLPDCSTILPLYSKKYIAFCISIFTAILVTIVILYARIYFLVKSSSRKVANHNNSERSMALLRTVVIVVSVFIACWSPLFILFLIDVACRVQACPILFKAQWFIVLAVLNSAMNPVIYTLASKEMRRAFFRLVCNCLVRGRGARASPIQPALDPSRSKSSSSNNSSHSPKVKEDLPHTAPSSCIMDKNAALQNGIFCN
Procedure: The protocol described in Example 11 for Assay 1 was allowed except for the following changes: • 1) 100 mm plates of 293-EBNA ith a confluency of ˜80% were used for transfection, • 2) SRE Cotransfection: 0.5 μg of 2XSREtk-p4Luc-zeo reporter DNA and 3.5 μg pcDNA3, EDG-1, EDG-3 pC3-hE3P2, different from the clone used in Assay 2 of Example 11) or the newly cloned human EDG-4 (pC3-hedg4#36); NF-κB Cotransfection: 2 μg 6XNFκBtk-p4LUc-zeo reporter DNA and 2.0 μg pcDNA3, EDG-1, EDG-3 (pC3-hE3HP2), or EDG-4 (pC3-hedg4#36). Expression plasmid and reporter plasmid DNA samples were combined and diluted in 750 μl of DMEM/F12 (serum free media) and 20 μl Plus Reagent (Lipofectamine Plus Kit, Life Technologies Cat. 109640-13), and incubated at room temperature for 15 min. • 3) 30 μl Lipofectamine Reagent (Lipofectamine Plus Kit) was diluted in 750 μl DMEM/F12. The diluted Lipofectamine was then combined with the DNA/Plus mixture and incubated at room temperature for 15 min. • 4) The 293-EBNA plates were washed once with PBS and 5 ml DMEM/F12 was added to each plate. • 5) DNA/Plus/Lipofectamine mixture was added to each plate of 293-EBNA cells. […]

[2] = test system: Human Umbilical Vein Endothelial Cells (HUVEC); assay: IL-8 response in primary cultured HUVEC; assay type: cell-based; details: 5 μM, 6 hr
Procedure: Cells: HUVEC (Clonetics, Cat. CC-2519) were passaged according to supplier's instructions and used at passage 3. Cells were plated at 20,000 cells/well into 24-well plates. […] LPA induced a 3-fold IL-8 increase at this concentration. […] As shown below in FIG. 23, three cloned edge receptors respond to LPA as an agonist, and all three appear to transduce NF-κB activation in an agonist-dependent manner.

293-EBNA cells = assay: IL-8 production in 293-EBNA cells; assay type: cell-based; details: untransfected
HeLa cells = assay: IL-8 response (IL-8 ELISA) in HeLa cells; assay type: cell-based, human
Procedure: • Cells: HeLa (adenocarcinoma, human) • Media: DMEM/F12+10% FBS Adherent • 1) Cells were seeded at 0.2×10^6 cells/well in 6-well plates. • 2) Confluency of cells after 24–32 hrs was between 60–70%. B. Overnight Serum-Starvation • 1) Media was aspirated (no PBS wash). • 2) 1.5 ml 0.5% FBS media was added to each well. C. Treatments and Collection • 1) Made up all required solutions in 0.5% FBS media (control). Handling of […] for use in NF-κB experiments requires that sonication, commonly used to resuspend LPA, not be done; NF-κB may be activated by lipid peroxides created through vigorous frothing. Solutions:
D. Detection of Interleukin-8 (IL-8) using an IL-8 ELISA (Enzyme-Linked ImmunoSorbent Assay). • 1) The Quantikine Human IL-8 Immuno Assay Kit was obtained from R&D Systems (Cat. D8050). • 2) The kit and all samples were allowed to equlibrate to room temperature prior to use. • 3) All reagents were provided in the kit and prepared according to the instructions provided. • 4) The assay procedure was followed as recommended in the kit for cell culture supernatant samples. • 5) ELISA was performed on 50 μl samples of culture supernatant and duplicate samples were measured for each well. Each treatment was performed on triplicate wells. • 6) Plates were read on UV max kinetic microplate reader (Molecular Devices), set to 450 nm and correction set to 575 nm, using Wsoftmax sotware version 2.34.
• 1) Cells were seeded at 2.5×10^4 cells/well in 24-well plates. • 2) Confluency of cells after 24–32 hrs was between 60–70%. B. Overnight Serum-Starvation and PTX Pre-Treatment • 1) Media was aspirated (no PBS wash). • 2) 0.5 ml 0.5% FBS media was added to all wells not requiring PTX pre-treatment. • 3) For well requiring PTX; 0.5 ml 0.5% FBS media containing 50 ng/ml PTX (1 volume PTX (RBI Cat. P140): 1 volume DTT, incubate 37° C. for 30 minutes then dilute to 50 ng/ml) was added. C. Treatments and Collection • 1) Made up all required solutions in 0.5% FBS media (control). […] D. Refer to Procedure #1 For HeLa Cells (D).

`CCCCCCCCCCCCC/C=C/[C@@H](O)[C@@H](N)COP(=O)(O)O` [S1P, sphingosine 1-phosphate] was tested, and the IL-8 release (HL-60 cells) was “no such release; also recorded: fail to produce IL-8 below the cytotoxic threshold”, the SRE reporter response ([1]; pcDNA3 control) was “about 1.5 fold” and the SRE reporter response (human EDG-3) was 12 fold. The “IL-8 levels, increase over untreated controls” value [2] was “approximately 5 fold” and the IL-8 production (293-EBNA cells) was “no IL-8 production”.
For `CCCCCCCCCCCCC/C=C/[C@@H](O)[C@@H](N)COP(=O)([O-])OCC[N+](C)(C)C` [SPC, sphingosylphosphorylcholine], the SRE reporter response ([1]; pcDNA3 control) was “not”, the “induction of the SRE reporter” value ([1]; Example 15A, pcDNA3 control, 3 μM SPC, 6 hr) was “about 2.5 fold” and the SRE reporter response (human EDG-3) was 11 fold. The “IL-8 levels, increase over untreated controls” value [2] was “Marginal increases” and the IL-8 induction (HeLa cells; 6 hours, concentration series) was “can induce IL-8 in HeLa cells in a concentration-dependent manner; also recorded: significantly induced IL-8 production”.
For lysophosphatidic acid [LPA], the IL-8 release (HL-60 cells) was “no such release”, the “endogenous SRE reporter response vs untreated control cells” value ([1]; pcDNA3, 10 μM LPA) was “about 1.5 fold” and the IL-8 response (HeLa cells; 1 and 10 μM, 1, 6 or 24 hours) was “not”. For the same compound, the IL-8 production (293-EBNA cells) was “no IL-8 production”.
